8 compounds from patent publication US10358463B2, “Immunomodulators” (BRISTOL-MYERS SQUIBB COMPANY, priority 2016, dated 2019) can be followed below.

Numbered stars: 1 amine (or outer) side, 2 acyl side, 3 side chain; on linkers, the order of the positions; unused ones are H or OH. Bridge positions count the residues as written; N and C are the ends. Square brackets hold non-standard residues; d marks the D form. Peptide text beside a SMILES is read from it. ξ: configuration not given here. X1 = O=C(O)Cn1c(C(=O)O)c(C[C@H](N[*:1])C(=O)[*:2])c2ccccc21; Trp(5-CN) = N#Cc1ccc2[nH]cc(C[C@H](N)C(=O)O)c2c1; X8 = O=C(O)Cn1cc(CC(N[*:1])C(=O)[*:2])c2cncnc21; X9 = O=C(O)Cn1cc(CC(N[*:1])C(=O)[*:2])c2cnccc21; X15 = O=C([C@H](Cc1n[nH]c2ccccc12)N[*:1])[*:2]; X4 = Cc1cccc2c(CC(N[*:1])C(=O)[*:2])n[nH]c12; X6 = O=C([C@H](Cc1ccc2cnccc2c1)N[*:1])[*:2]; Hyp = O=C(O)[C@@H]1C[C@@H](O)CN1; NMeNle = CCCC[C@H](NC)C(=O)O; NMeA = CN[C@@H](C)C(=O)O; Dab = NCC[C@H](N)C(=O)O; Dap = NC[C@H](N)C(=O)O; ξP = O=C(O)C1CCCN1

T1 sequence (Q9NZQ7 with tags, fused parts or gaps): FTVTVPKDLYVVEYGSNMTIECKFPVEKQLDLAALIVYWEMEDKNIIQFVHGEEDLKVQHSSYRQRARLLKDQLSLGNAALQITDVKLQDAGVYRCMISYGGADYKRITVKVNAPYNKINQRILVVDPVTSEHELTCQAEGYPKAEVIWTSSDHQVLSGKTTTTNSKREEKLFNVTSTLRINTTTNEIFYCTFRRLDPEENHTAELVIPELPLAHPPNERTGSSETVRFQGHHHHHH

The first test concerns the target T1, PD-1-Ig binding to PD-L1-TVMV-His (PD-L1-His) (Homo sapiens, UniProt Q9NZQ7).
T1 construct: hPDL1 (19-239)-TVMV-His; TVMV protease cleavage site (C); made in house; host or cells: HEK293T cells
The test can be described thus: PD-1/PD-L1 Homogenous Time-Resolved Fluorescence (HTRF) binding assay. The conditions noted are these: PD-1-Ig (20 nM)/PD-L1-His (10 nM); numeric value.
With `CCCC[C@H]1C(=O)N(C)[C@@H](CCCC)C(=O)N[C@@H](C)C(=O)N[C@H](C(=O)NCC(N)=O)CSCC(=O)N[C@@H](Cc2ccc(O)cc2)C(=O)N(C)[C@@H](C)C(=O)N[C@@H](CC(N)=O)C(=O)N2CCCC2C(=O)N[C@@H](Cc2cnc[nH]2)C(=O)N[C@@H](CCC(N)=O)C(=O)N2C[C@H](O)C[C@H]2C(=O)N[C@@H](Cc2c[nH]c3ccccc23)C(=O)N[C@@H](CO)C(=O)NC(Cc2n[nH]c3c(C)cccc23)C(=O)N1C` (some centres unmarked) [Example 1288] ({CH2CO}-Y[NMeA]N[ξP]HQ[Hyp]WS[X4][NMeNle][NMeNle]ACG-NH2; thioether N-14), the IC50 was 7.14 µM.

The same test, now with this note: PD-1-Ig (20 nM)/PD-L1-His (10 nM); range class.
As to `CCCC[C@H]1C(=O)N(C)[C@@H](CCCC)C(=O)N[C@@H](CC(C)C)C(=O)N[C@H](C(=O)NCC(N)=O)CSCC(=O)N[C@@H](Cc2ccc(O)cc2)C(=O)N(C)[C@@H](C)C(=O)N[C@@H](CC(=O)O)C(=O)N2CCC[C@H]2C(=O)N[C@@H](Cc2cnc[nH]2)C(=O)N[C@@H](CCCCN)C(=O)N2C[C@H](O)C[C@H]2C(=O)N[C@@H](Cc2c[nH]c3ccccc23)C(=O)N[C@@H](CCCCN)C(=O)N[C@@H](Cc2cn(Cc3nnn[nH]3)c3ccccc23)C(=O)N1C` [Example 1002], the IC50 lay in the range of 0.001 to 0.0099 µM. As to `CCCC[C@H]1C(=O)N(C)[C@@H](CCCC)C(=O)N[C@@H](CC(C)C)C(=O)N[C@H](C(=O)NCC(N)=O)CSCC(=O)N[C@@H](Cc2ccc(O)cc2)C(=O)N(C)[C@@H](C)C(=O)N[C@@H](CC(N)=O)C(=O)N2CCC[C@H]2C(=O)N[C@@H](CN)C(=O)N[C@@H](CC(C)C)C(=O)N2C[C@H](O)C[C@H]2C(=O)N[C@@H](Cc2c[nH]c3ccccc23)C(=O)N[C@@H](CCN)C(=O)NC(Cc2cn(CC(=O)O)c3ccncc23)C(=O)N1C` (some centres unmarked) [Example 10001] ({CH2CO}-Y[NMeA]NP[Dap]L[Hyp]W[Dab][X9][NMeNle][NMeNle]LCG-NH2; thioether N-14), the IC50 lay within 0.01 to 0.099 µM. The same measure, in the same setting: for `CCCC[C@H]1C(=O)N(C)[C@@H](CCCC)C(=O)N[C@@H](CC(C)C)C(=O)N[C@H](C(=O)NCC(N)=O)CSCC(=O)N[C@@H](Cc2ccc(O)cc2)C(=O)N(C)[C@@H](C)C(=O)N[C@@H](CC(N)=O)C(=O)N2CCC[C@H]2C(=O)N[C@@H](CN)C(=O)N[C@@H](CC(C)C)C(=O)N2C[C@H](O)C[C@H]2C(=O)N[C@@H](Cc2c[nH]c3ccccc23)C(=O)N[C@@H](CCN)C(=O)NC(Cc2cn(CC(=O)O)c3ncncc23)C(=O)N1C` (some centres unmarked) [Example 10002] ({CH2CO}-Y[NMeA]NP[Dap]L[Hyp]W[Dab][X8][NMeNle][NMeNle]LCG-NH2; thioether N-14) the value was 0.1 to 0.99 µM. The same measure, in the same setting: with `CCCC[C@H]1C(=O)N(C)[C@@H](CCCC)C(=O)N[C@@H](C)C(=O)N[C@H](C(=O)NCC(N)=O)CSCC(=O)N[C@@H](Cc2ccc(O)cc2)C(=O)N(C)[C@@H](C)C(=O)N[C@@H](CC(N)=O)C(=O)N2CCCC2C(=O)N[C@@H](Cc2cnc[nH]2)C(=O)N[C@@H](CCC(N)=O)C(=O)N2C[C@H](O)C[C@H]2C(=O)N[C@@H](Cc2c[nH]c3ccccc23)C(=O)N[C@@H](CO)C(=O)N[C@@H](Cc2c[nH]c3ccc(C#N)cc23)C(=O)N1C` (some centres unmarked) [Example 1284] ({CH2CO}-Y[NMeA]N[ξP]HQ[Hyp]WS[Trp(5-CN)][NMeNle][NMeNle]ACG-NH2; thioether N-14) the figure was 0.1 to 0.99 µM; with `CCCC[C@H]1C(=O)N(C)[C@@H](CCCC)C(=O)N[C@@H](C)C(=O)N[C@H](C(=O)NCC(N)=O)CSCC(=O)N[C@@H](Cc2ccc(O)cc2)C(=O)N(C)[C@@H](C)C(=O)N[C@@H](CC(N)=O)C(=O)N2CCCC2C(=O)N[C@@H](Cc2cnc[nH]2)C(=O)N[C@@H](CCC(N)=O)C(=O)N2C[C@H](O)C[C@H]2C(=O)N[C@@H](Cc2c[nH]c3ccccc23)C(=O)N[C@@H](CO)C(=O)N[C@@H](Cc2n[nH]c3ccccc23)C(=O)N1C` (some centres unmarked) [Example 1286] ({CH2CO}-Y[NMeA]N[ξP]HQ[Hyp]WS[X15][NMeNle][NMeNle]ACG-NH2; thioether N-14), 0.1 to 0.99 µM; with `CCCC[C@H]1C(=O)N(C)[C@@H](CCCC)C(=O)N[C@@H](CC(C)C)C(=O)N[C@H](C(=O)NCC(N)=O)CSCC(=O)N[C@@H](Cc2ccc(O)cc2)C(=O)N(C)[C@@H](C)C(=O)N[C@@H](CC(N)=O)C(=O)N2CCC[C@H]2C(=O)N[C@@H](CN)C(=O)N[C@@H](CC(C)C)C(=O)N2C[C@H](O)C[C@H]2C(=O)N[C@@H](Cc2c[nH]c3ccccc23)C(=O)N[C@@H](CCN)C(=O)N[C@@H](Cc2c(C(=O)O)n(CC(=O)O)c3ccccc23)C(=O)N1C` [Example 1013] ({CH2CO}-Y[NMeA]NP[Dap]L[Hyp]W[Dab][X1][NMeNle][NMeNle]LCG-NH2; thioether N-14), 0.01 to 0.099 µM.

For the compound `CCCC[C@H]1C(=O)N(C)[C@@H](CCCC)C(=O)N[C@@H](CCCNC(=N)N)C(=O)N[C@H](C(=O)NCC(N)=O)CSCC(=O)N[C@@H](Cc2ccc(O)cc2)C(=O)N(C)[C@@H](C)C(=O)N[C@@H](CC(N)=O)C(=O)N2CCC[C@H]2C(=O)N[C@@H](Cc2cnc[nH]2)C(=O)N[C@@H](CC(C)C)C(=O)N2C[C@H](O)C[C@H]2C(=O)N[C@@H](Cc2c[nH]c3ccccc23)C(=O)N[C@@H](CO)C(=O)N[C@@H](Cc2ccc3cnccc3c2)C(=O)N1C` [Example 0001] ({CH2CO}-Y[NMeA]NPHL[Hyp]WS[X6][NMeNle][NMeNle]RCG-NH2; thioether N-14), the IC50 is 0.1 to 0.99 µM.
